The subject of test [1] is gp120 isolates SF2, SF162, Bal, IIIB, YU2. Briefly: Direct binding by fluorescence anisotropy, comparison over all isolates. The settings on record: depending on gp120 isolates. More on the design: species or system HIV-1. Here is the method:
Direct binding assays of fluorescent peptides were performed in triplicates by adding 10 μL of 0.5 nM Alexa-labeled mini-proteins and 10 μL of serial dilutions (two-thirds dilutions in 16 wells, starting at 200 nM) of gp120 SF2, SF162, BaL, IIIB and YU2. Collected data were fitted to the following equation using a non-linear regression program (Prism, GraphPad software Inc.):
The biphenylalanine in position 23 led to a 3 fold gain, consistent with the previously observed difference between CD4M33 and its [Phe^23]M33 mutant (Huang et al., Structure, 2005, 13, 755-768).
(In general: Fluorescence polarisation rises when a labelled molecule tumbles more slowly, as on binding a larger partner.)

Another test has as its system HIV-1 6393(R5). Put plainly: Acute infection assay in PM1 cells. Type of test: cell-based. Particulars: day 5, read-out: Antiviral activity IC50. Here is the method:
(§1) For the acute infection assay in PM1 cell line (Lusso et al., J. virol., 1995, 69, 3712-3720), an immortalized CD4^+CCR5^+CXCR4^+ T-cell clone susceptible of a wide variety of HIV-1 strains, the cells were seeded at 2.5×10^4 cells/well into flat-bottom 96-well plates in 200 μL of complete RPMI medium. Cells were then exposed to the viral stocks (˜50 TCID50/well) pre-treated or not with serial dilutions of inhibitors for 30 min. After overnight incubation at 37° C., the cells were washed twice and recultured in complete RPMI medium supplemented with the appropriate inhibitors. After 3, 5 or 7 days, the culture supernatant was removed […] p24 antigen testing and replaced with fresh medium containing the appropriate inhibitors. The extracellular p24 concentrations were measured by capture ELISA, using a sandwich of specific antibodies (AALTO BIO REAGENTS).
(§2) The experimental procedures are as described in example 1.

A further test has as its system HIV-1 714(R5). Put plainly: Acute infection assay in PM1 cells. Format: cell-based. Particulars: day 5, read-out: Antiviral activity IC50. Here is the method: as §1, §2
Another test deals with HIV-1 BaL(R5). Put plainly: Acute infection assay in PM1 cells. Type of test: cell-based. Particulars: day 5, read-out: Antiviral activity IC50. Here is the method:
as §1, §2

For a further test, the system named is HIV-1 NL4.3 (X4). Format: cell-based. Here is the method:
The antiviral activity of the molecules in MT-4 cells was determined using a tetrazolium-based colorimetric assay (Hase et al., Biochem. Pharmacol., 2005, 70, 752-761). Briefly, five-fold dilutions of the test compounds in 100 μL of medium were added to duplicate wells of 96-well flat bottom plates (IWAKI). Then 6×10^4 MT-4 cells were added in 50 μL of medium, and finally 50 μL of diluted HIV-1 stocks was added to each well. Cytopathic effect induced by the virus was monitored by daily microscopic evaluation of the virus-infected cell cultures. At day 4-5 after infection, the cell viability was assessed via the in situ reduction of the tetrazolium compound MTS, using the CellTiter 96® AQueous one solution cell proliferation assay (PROMEGA). The absorbance was then measured at 490 nm with a 96-well plate reader and compared with four cell control replicates (cells without virus and drugs) and four virus control wells (virus-infected cells without drugs). The IC50 was calculated for each compound from the dose-response curve.
as §2

In a further test the test system is HIV-1 NL4.3(X4). Format: cell-based. Here is the method:
The acute infection assays in primary cells were performed as described by Schols and coworkers (Balzarini et al., J. Biol. Chem., 2005, 280, 41005-41014). Briefly, PBMC from healthy donors were isolated by density gradient centrifugation and stimulated by phytohemagglutinin (PHA; SIGMA) in RPMI 1640 medium supplemented with 10% foetal calf serum (FCS; BIOCHROM). PBMC were infected by exposing cells (0.5×10^6/well; 48-well plate) to the viral stocks added at a final dose of 250 pg of p24/mL in the presence or the absence of the inhibitors. Cell supernatant was collected at day 12, and HIV-1 core Ag in the culture supernatant was analysed by a p24 Ag enzyme-linked immunosorbent assay kit (PERKIN ELMER).
as §2

The target of the next test is gp120SF162 (Human immunodeficiency virus type 1 group M subtype B, UniProt P19550). The settings on record: injected at 125 nM; curves normalized to CD4M48. Here is the method: 100 μL of monomer, dimers and tetramers were passed over the surface at 20 μL/min after which dissociation of bound inhibitors was monitored for 15 min.
All experiments were conducted at 25° C. with 20 μL/min flow rate in HBS (50 mM HEPES-buffered saline, 3 mM EDTA, 0.05% Biacore surfactant P20, pH 7.4) with a BIACORE 3000 instrument (BIACORE AB).
For binding of multimers to gp120, gp120SF162 was immobilized on a CM5 sensor chip at 9000 RU by the amine coupling kit provided by the manufacturer.

The target in test [2] is T1, gp120SF162 binding to CCR5+-CHO cells (Human immunodeficiency virus type 1 group M subtype B, UniProt P19550).
T1 construct: R5-tropic SF162 and Dual-tropic SF2 recombinant gp120s were produced in mammalian cells (CHO); made in house; host or cells: gp120: CHO; CCR5: transfected CHO-K1 cells
Put plainly: FACS analysis of gp120 binding to CCR5+-CHO cells in presence of CD4 mimics. Type of test: cell-based, HIV-1. Particulars: gp120SF162 pre-incubated with mini-protein. From the text: FIG. 7 illustrates the FACS analysis of the binding of recombinant envelope gp120 to CCR5^+-CHO cells in absence or in presence of various CD4-mimics, in comparison with soluble CD4.
FIG. 13 illustrates the FACS analysis of the binding of recombinant envelope gp120 to CCR5^+-CHO cells in absence or in presence of various CD4-mimics in comparison with soluble CD4.
FIG. 19 illustrates the FACS analysis of the binding of gp120SF162 to CCR5^+ CHO cells in absence or in presence of CD4M48 monomer or hetero-bivalent CD4M48−heparin. The ability of gp120 in complex with CD4M48 alone, CD4M48 covalently bound to heparin (noted M48−heparin), CD4M48 in presence of free LMW heparin (1:1) (noted M48+heparin) to bind to cellular co-receptor CCR5 was investigated.
Adherent CHO-K1 cells expressing CCR5 (Samson et al., Biochemistry, 1996, 35, 3362-3367; Blanpain et al., Blood, 2000, 96, 1638-1645) were used to analyze gp120SF162 conformational change in complex with different mini-proteins, by FACS (BECKTON DICKINSON). Briefly, 0.03 μg of gp120SF162 were pre-incubated overnight at 4° C. in absence or in presence of 10 nM CD4 or 10 nM mini-proteins and further added to 2×10^5 cells in HAM F12 supplemented with 10% SVF, 1% penicillin/streptomycin. […] After final wash, cells were analyzed for envelope binding by FACS.

In the next test the test system is gp120. Here is the method:
Fluorescence anisotropy was determined after 40 min equilibration time at room temperature, using 485 nm excitation and 530 nm emission filters and an additional 505 nm dichroic filter. All experiments were performed in duplicate.
Fluorescence anisotropy measurements were based on the assessment of the rotational motions of species. Whereas the CD4-mimic tumbles very fast in solution randomizing excited molecules, once it binds to gp120 envelopes, the excited mini-protein stays aligned during the process of emission and as a result, emitted light is polarized.

Test [3] has as its system gp120 (SF162, YU2, SF2, LAI, HXB2) binding to CD4i antibody 48d. Briefly: SPR analysis of binding of gp120 complexes to immobilized CD4i Ab 48d. The settings on record: 50 nM gp120 premixed with 3 eq. More on the design: species or system HIV-1. Here is the method:
120 μL of 50 nM gp120 preincubated with 3 eq. […] (A) gp120SF162, (B) gp120LAI. (C) gp120YU2.
The different gp120 (SF162, YU2, LAI, HXB2, SF2) were premixed at a final concentration of 50 nM with 3 eq. CD4M48, 3 eq. CD4M48 in presence of 3 eq. LMW heparin or 3 eq. covalent CD4M48−heparin for 60 min before injection at 20 μL/min. All sensorgrams were corrected by substracting the signal from reference flow cell.

Where [4] appears, read: MT-4 cells, NL4.3 (X4), day 5, read-out: Antiviral activity IC50.

Where two headings read alike, the source gives them in different places.

One may read the IC50 as the concentration at which inhibition is half-maximal.

As to “CD4M47-F1: CD4M47 labeled with Alexa-488 probe at Lys11”, the “Improvement of affinity (Kd) compared to CD4M33” value in test [1] is on record as 5.2- to 12.3 fold.

On to “CD4M48T50: CD4M48 tetramer on polylysine construct with 50 Å PEGylated linkers”, for which the IC50 is 350 nM in the test with HIV-1 6393(R5); 680 nM in the test on HIV-1 714(R5); 310 nM in the test on HIV-1 BaL(R5); 31 nM in the test with HIV-1 NL4.3 (X4) (setting [4]); below 26 nM in the test with HIV-1 NL4.3(X4) (PBMC, day 12, read-out: Antiviral activity IC50).

As to “CD4M48-F1: CD4M48 labeled with Alexa-488 probe at Lys11 (XNLHFCQLRCKSLGLLGRCAXTFCACV; not fully specified; D-residues)”, in test [1], the “Improvement of affinity (Kd) compared to CD4M33” value was in the range of 1.1 to 6.1 fold.

Consider Enfuvirtide, for which the values for the IC50 in the test with HIV-1 NL4.3 (X4) (NL4.3(X4)) and in the test on HIV-1 NL4.3(X4) were 11 nM and 13 nM, respectively.

Take “CD4M48T100: CD4M48 tetramer on polylysine construct with 100 Å PEGylated linkers (XNLHFCQLRCKSLGLLGRCAXTFCACV; not fully specified; D-residues)”: the IC50 was found to be 55 nM in the test with HIV-1 6393(R5), 360 nM with HIV-1 714(R5), 45 nM in the test on HIV-1 BaL(R5) and 22 nM with HIV-1 NL4.3 (X4) (setting [4]). Further, in the test with gp120SF162, the “Dissociation from immobilized gp120 (off-rate) compared to monomer CD4M48” value is on record as “slowed-down dissociation phase”.

On to “CD4M48-hep: hetero-bivalent inhibitor: CD4M48-hydrazino (Lys-11) covalently ligated to heparin mono-aldehyde (XNLHFCQLRCKSLGLLGRCAXTFCACV; not fully specified; D-residues)”, for which the “Binding of gp120 to CCR5+-CHO cells induced by the mimic (conformational change of gp120)” value in test [2] was “prevents the binding of the complex to CCR5+ cells”. For the same substance, the “Inhibition of CD4M33-F1 binding to gp120 (competitive polarization)” value with gp120 is on record as “nanomolar range”. For the same substance, the “Recognition of the gp120 complex by CD4i Ab 48d” value in [3] was “inhibit completely the recognition of the complex by CD4i-Ab 48d”.

The values above are taken from patent US8354498B2, “CD4 mimic peptides and their uses” (Commissariat a l'Energie Atomique, priority 2006, dated 2013).
